Laboratory results from ChEMBL document CHEMBL1201862, “PubChem BioAssay data set” (2004).
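Values below derive from 48-hour exposures of cells grown in 96-well plates, with endpoints linearly interpolated between the two concentrations bracketing the appropriate inhibition level. GI50: concentration for 50% inhibition of growth.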 Activity calls are given as the source filed them. Rule as the data show it: active = GI50 up to about 1.1 µM and inactive = higher.

Tests used:
Assay in all cases: NCI tumour cell line growth inhibition, 48 h
Malme-3M = tested on: Malme-3M
M19-MEL = tested on: M19-MEL
SK-OV-3 = tested on: SK-OV-3
XF498 = tested on: XF498
SF-295 = tested on: SF-295
DMS-273 = tested on: DMS-273
OVCAR-3 = tested on: OVCAR-3
DLD-1 = tested on: DLD-1
HCC 2998 = tested on: HCC 2998
SF-268 = tested on: SF-268
RXF 393 = tested on: RXF 393
ACHN = tested on: ACHN
K562 = tested on: K562
TK-10 = tested on: TK-10
CAKI-1 = tested on: CAKI-1
HOP-62 = tested on: HOP-62
SN12C = tested on: SN12C
NCI-H460 = tested on: NCI-H460
COLO 205 = tested on: COLO 205
A549 = tested on: A549
HT-29 = tested on: HT-29
OVCAR-8 = tested on: OVCAR-8
HOP-92 = tested on: HOP-92
OVCAR-4 = tested on: OVCAR-4
UO-31 = tested on: UO-31
UACC-62 = tested on: UACC-62
SNB-75 = tested on: SNB-75
HCT-15 = tested on: HCT-15
EKVX = tested on: EKVX
LXFL 529 = tested on: LXFL 529
786-0 = tested on: 786-0
SK-MEL-28 = tested on: SK-MEL-28
SNB-78 = tested on: SNB-78
KM-20L2 = tested on: KM-20L2
SW-620 = tested on: SW-620
HL-60 = tested on: HL-60
DMS-114 = tested on: DMS-114
IGROV-1 = tested on: IGROV-1
U-251 = tested on: U-251
LOX IMVI = tested on: LOX IMVI
M14 = tested on: M14
CCRF-CEM = tested on: CCRF-CEM
NCI-H23 = tested on: NCI-H23
HOP-18 = tested on: HOP-18
PC-3 = tested on: PC-3
SR = tested on: SR
HCT-116 = tested on: HCT-116
MDA-N = tested on: MDA-N
MDA-MB-435 = tested on: MDA-MB-435
BT-549 = tested on: BT-549
DU-145 = tested on: DU-145
NCI-H226 = tested on: NCI-H226
SF-539 = tested on: SF-539
Hs-578T = tested on: Hs-578T
MDA-MB-231 = tested on: MDA-MB-231
T47D = tested on: T47D
SNB-19 = tested on: SNB-19

SMILES: O=C(O)/C(Cl)=C(\Cl)Nc1cccc(C(F)(F)F)c1
- GI50 (Malme-3M): > 100 µM (inactive)
- GI50 (M19-MEL): > 100 µM (inactive)
- GI50 (SK-OV-3): > 100 µM (inactive)
- GI50 (XF498): > 100 µM (inactive)
- GI50 (SF-295): > 100 µM (inactive)
- GI50 (DMS-273): > 100 µM (inactive)
- GI50 (OVCAR-3): > 100 µM (inactive)
- GI50 (DLD-1): > 100 µM (inactive)
- GI50 (HCC 2998): > 100 µM (inactive)
- GI50 (SF-268): > 100 µM (inactive)
- GI50 (RXF 393): > 100 µM (inactive)
- GI50 (ACHN): > 100 µM (inactive)
- GI50 (K562): > 100 µM (inactive)
- GI50 (TK-10): > 100 µM (inactive)
- GI50 (CAKI-1): > 100 µM (inactive)
- GI50 (HOP-62): > 100 µM (inactive)
- GI50 (SN12C): > 100 µM (inactive)
- GI50 (NCI-H460): > 100 µM (inactive)
- GI50 (COLO 205): > 100 µM (inactive)
- GI50 (A549): > 100 µM (inactive)
- GI50 (HT-29): > 100 µM (inactive)
- GI50 (OVCAR-8): > 100 µM (inactive)
- GI50 (HOP-92): 9.2 µM (inactive)
- GI50 (OVCAR-4): > 100 µM (inactive)
- GI50 (UO-31): > 100 µM (inactive)
- GI50 (UACC-62): > 100 µM (inactive)
- GI50 (SNB-75): > 100 µM (inactive)
- GI50 (HCT-15): > 100 µM
- GI50 (EKVX): > 100 µM (inactive)
- GI50 (LXFL 529): > 100 µM (inactive)
- GI50 (786-0): > 100 µM (inactive)
- GI50 (SK-MEL-28): > 100 µM (inactive)
- GI50 (SNB-78): > 100 µM (inactive)
- GI50 (KM-20L2): > 100 µM (inactive)
- GI50 (SW-620): > 100 µM (inactive)
- GI50 (HL-60): 39.5 µM (inactive)
- GI50 (DMS-114): > 100 µM (inactive)
- GI50 (IGROV-1): > 100 µM (inactive)
- GI50 (U-251): > 100 µM (inactive)
- GI50 (LOX IMVI): > 100 µM (inactive)
- GI50 (M14): 18 µM (inactive)
- GI50 (CCRF-CEM): > 100 µM (inactive)
- GI50 (NCI-H23): > 100 µM (inactive)
- GI50 (HOP-18): > 100 µM (inactive)

SMILES: CO[C@H](C(=O)[C@@H](O)[C@@H](C)O)[C@@H]1Cc2cc3cc(OC4CC(OC5CC(O)C(O)C(C)O5)C(O)C(C)O4)c(C)c(O)c3c(O)c2C(=O)[C@H]1OC1CC(OC2CC(OC3CC(C)(O)C(O)C(C)O3)C(O)C(C)O2)C(O)C(C)O1 (stereo partly specified)
- GI50 (PC-3): 0.0284 µM (active)
- GI50 (M19-MEL): 0.314 µM (active)
- GI50 (SR): 0.00526 µM (active)
- GI50 (XF498): 0.314 µM (active)
- GI50 (DMS-273): 0.348 µM (active)
- GI50 (DLD-1): 0.334 µM (active)
- GI50 (HCT-116): 0.125 µM (active)
- GI50 (TK-10): 0.129 µM (active)
- GI50 (MDA-N): 0.0128 µM (active)
- GI50 (MDA-MB-435): 0.0197 µM (active)
- GI50 (CAKI-1): 0.125 µM (active)
- GI50 (BT-549): 0.00689 µM (active)
- GI50 (DU-145): 0.0438 µM (active)
- GI50 (NCI-H226): 0.125 µM (active)
- GI50 (OVCAR-8): 0.176 µM (active)
- GI50 (SF-539): 0.125 µM (active)
- GI50 (Hs-578T): 0.00331 µM (active)
- GI50 (MDA-MB-231): 0.0495 µM (active)
- GI50 (786-0): 0.00927 µM (active)
- GI50 (SNB-78): 0.395 µM (active)
- GI50 (KM-20L2): 0.348 µM (active)
- GI50 (HL-60): 0.128 µM (active)
- GI50 (T47D): 0.00406 µM (active)
- GI50 (DMS-114): 0.348 µM (active)
- GI50 (M14): 0.0196 µM (active)
- GI50 (SNB-19): 0.125 µM (active)
- GI50 (HOP-18): 0.125 µM (active)
